# In paper PMC12549899 (Nature Communications, 2025):
# Biological target: T1, DrOTOP1 G130W/E384A (Danio rerio, UniProt Q7ZWK8, E384A/G130W)
# T1 construct: A previously generated codon-optimized full-length DrOTOP1[8]; (UniProt: Q7ZWK8) construct; expressed in transfected cells; host or cells: HEK-293 (CRL-1573, ATCC)
# T1 sequence (Q7ZWK8 1-586 G130W/E384A): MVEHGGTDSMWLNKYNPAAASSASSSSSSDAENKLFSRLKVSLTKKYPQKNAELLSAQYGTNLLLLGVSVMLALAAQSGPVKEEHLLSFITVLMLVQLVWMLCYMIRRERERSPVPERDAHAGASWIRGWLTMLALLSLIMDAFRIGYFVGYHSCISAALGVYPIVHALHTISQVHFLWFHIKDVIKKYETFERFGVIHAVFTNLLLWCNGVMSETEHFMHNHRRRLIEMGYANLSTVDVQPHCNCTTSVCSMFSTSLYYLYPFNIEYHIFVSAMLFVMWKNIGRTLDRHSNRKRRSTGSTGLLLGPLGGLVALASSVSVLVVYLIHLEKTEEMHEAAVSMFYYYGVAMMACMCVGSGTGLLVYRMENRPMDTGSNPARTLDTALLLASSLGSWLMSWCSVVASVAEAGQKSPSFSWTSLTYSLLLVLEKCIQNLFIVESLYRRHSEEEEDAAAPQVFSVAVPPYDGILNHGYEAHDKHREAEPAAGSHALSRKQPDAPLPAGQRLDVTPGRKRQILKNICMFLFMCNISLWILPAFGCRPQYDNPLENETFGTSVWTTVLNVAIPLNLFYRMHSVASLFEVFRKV
# Assay: Whole-cell patch-clamp, inhibition of acid-evoked currents, DrOTOP1 G130W/E384A
# Type: cell-based, zebrafish (Danio rerio)
# Method: Given our limited success in identifying mutations of the central site that disrupt antagonism by C2.2, we tested whether mutations of the central site in a background of G130W (the most impactful outer site mutation) might unmask contributions of this site. Thus, we generated and tested double mutants of G130W with E384A, A274W, and A388W. […] We also measured the dose-dependence of inhibition by C2.2 for both G130W/A388W and G130W/E384A (Fig. 5I, J). […] G130W was tested in parallel to confirm that 100 and 300 μM C2.2 produced dose-dependent inhibition.
# HEK-293 cells (CRL-1573, ATCC) were cultured in DMEM (Thermofisher 11995073) containing 10% fetal bovine serum (Life Technology 16000044) and Penicillin-Streptomycin (100 I.U./mL) and (100 µg/mL), respectively. Cells were transfected with WT DrOTOP1 or mutant DrOTOP1 channels in 35 mm petri dishes, with ~ 500 ng DNA and 2 μL TransIT-LT1 transfection reagent (Mirus Bio Corporation, Cat # MIR2300) following the manufacturer’s protocol. All constructs were subcloned into a pcDNA3.1 vector that adds an N-terminal fusion tag consisting of an octahistidine tag followed by eGFP, a Gly-Thr-Gly-Thr linker and a 3C protease cleavage site ([…]) followed by WT DrOTOP1, WT mOTOP1, WT hOTOP1, or mutated DrOTOP1. Point mutations were generated via In-Fusion Cloning (Takara) using single-stranded DNA primers generated through IDT and sequence confirmed by Sanger sequencing (GeneWiz).
# Whole-cell patch-clamp recording was performed as previously described[6],[22],[25]. Recordings were made with an Axopatch 200B amplifier, digitized with a Digidata 1322a 16-bit data acquisition system, acquired with pClamp 8.2 and analyzed with Clampfit 10 (Molecular Devices). Recordings were sampled at 5 kHz and filtered at 1 kHz. Patch Pipettes with resistance of […] were fabricated from borosilicate glass, and only recordings with a giga-Ohm seal were used in analysis. Membrane potential was held at −80 mV for the duration of recordings. At the beginning of recordings and between, cells were washed with Tyrode’s solution (see below). Once a giga-Ohm seal was reached, cells were lifted and placed in front of microcapillary tubes controlled by a Fast-Step perfusion system (Warner Instruments) so that extracellular solutions could be rapidly exchanged during each experiment.
# Standard Tyrode’s solution consisted of 145 mM NaCl, 5 mM KCl, MgCl2, 2 mM CaCl2, 20 mM D-Glucose, and 10 mM HEPES (for pH 7.4). All other extracellular patch-clamp solutions contained 160 mM NMDG-Cl, 2 mM CaCl2, and the following buffers: 10 mM HEPES (for pH 7.4), 10 mM MES (for pH 6.5-5.5), 10 mM CHES for pH 10, and 10 mM HomoPIPES for (pH 5.0). pH adjusted with HCl. […]
# All data are presented as mean ± SEM unless otherwise noted, and each data point represents an independent replicant. Inhibition of compounds was quantified as ((I2peak-I1)/(I2peak))*100, where I1 is the current immediately before wash-off and I2peak is the maximum recovered current (Supplementary Fig. 2). Hill coefficients were determined by the following equation: Y = Bmax*X^h/(Kd^h + X^h). Absolute IC50 was determined by the following equation: Fifty = (Top + Baseline)/2 Y = Bottom + (Top-Bottom)/(1 + ((Top-Bottom)/(Fifty-Bottom) − 1)*(AbsoluteIC50/X)^HillSlope). pH50 curves (Fig. 6G inset) were determined using the following equation: Y = Bottom + (Top-Bottom)/(1 + (EC/X)^HillSlope) where EC = EC50 control. […]
smiles,measurement,setting,value
C=C(C)COc1ccccc1NC(=O)c1nc[nH]c1C [C2.2],inhibition at 10 µM,"10 µM, DrOTOP1 G130W/E384A, single cells or mean",3.23%
same,inhibition at 300 µM,"DrOTOP1 G130W/E384A, saturated by 100 µM, no further inhibition at 300 µM, read-out: Maximal inhibition (saturation)",~50%
same,HillSlope,"G130W/E384A, best-fit value",2.538
same,LogAbsoluteIC50,"G130W/E384A, best-fit value",1.644
same,IC50,"G130W/E384A, best-fit value, Top fitted, Bottom = 0, read-out: AbsoluteIC50",44.1 µM
